Test: xn = mol fraction of the nth substance listed
Conditions: Liquid, Vibrating tube method

CCCCCCCCCC [decane] + CCCCCCCC
Conditions	mass density [kg/m3]
333.12 K, 16000 kPa, x2 = 0.2801	707.59
333.12 K, 17000 kPa, x2 = 0.0616	713.28
333.12 K, 17000 kPa, x2 = 0.2801	708.43
333.12 K, 18000 kPa, x2 = 0.0616	714.06
333.12 K, 18000 kPa, x2 = 0.2801	709.25
333.12 K, 19000 kPa, x2 = 0.0616	714.88
333.12 K, 19000 kPa, x2 = 0.2801	710.06
333.12 K, 20000 kPa, x2 = 0.0616	715.65
333.12 K, 20000 kPa, x2 = 0.2801	710.83
333.12 K, 21000 kPa, x2 = 0.0616	716.44
333.12 K, 21000 kPa, x2 = 0.2801	711.62
333.12 K, 22000 kPa, x2 = 0.0616	717.15
333.12 K, 22000 kPa, x2 = 0.2801	712.4
333.12 K, 23000 kPa, x2 = 0.0616	717.89
333.12 K, 23000 kPa, x2 = 0.2801	713.12
333.12 K, 24000 kPa, x2 = 0.0616	718.59
333.12 K, 24000 kPa, x2 = 0.2801	713.84
333.12 K, 25000 kPa, x2 = 0.0616	719.3
333.12 K, 25000 kPa, x2 = 0.2801	714.53
333.13 K, 1000 kPa, x2 = 0.5314	686.94
333.13 K, 1000 kPa, x2 = 0.9623	672.68
333.13 K, 2000 kPa, x2 = 0.5314	687.94
333.13 K, 2000 kPa, x2 = 0.9623	673.73
333.13 K, 3000 kPa, x2 = 0.5314	688.95
333.13 K, 3000 kPa, x2 = 0.9623	674.77
333.13 K, 4000 kPa, x2 = 0.5314	689.94
333.13 K, 4000 kPa, x2 = 0.9623	675.8
333.13 K, 5000 kPa, x2 = 0.5314	690.92
333.13 K, 5000 kPa, x2 = 0.9623	676.82
333.13 K, 6000 kPa, x2 = 0.5314	691.92
333.13 K, 6000 kPa, x2 = 0.9623	677.85
333.13 K, 7000 kPa, x2 = 0.5314	692.89
333.13 K, 7000 kPa, x2 = 0.9623	678.88
333.13 K, 8000 kPa, x2 = 0.5314	693.87
333.13 K, 8000 kPa, x2 = 0.9623	679.95
333.13 K, 9000 kPa, x2 = 0.5314	694.82
333.13 K, 9000 kPa, x2 = 0.9623	680.98
333.13 K, 10000 kPa, x2 = 0.5314	695.75
333.13 K, 10000 kPa, x2 = 0.9623	681.98
333.13 K, 10990 kPa, x2 = 0.5314	696.68
333.13 K, 10990 kPa, x2 = 0.9623	682.99
333.13 K, 12000 kPa, x2 = 0.5314	697.6
333.13 K, 12000 kPa, x2 = 0.9623	683.98
333.13 K, 13000 kPa, x2 = 0.5314	698.5
333.13 K, 13000 kPa, x2 = 0.9623	684.93
333.13 K, 14000 kPa, x2 = 0.5314	699.4
333.13 K, 14000 kPa, x2 = 0.9623	685.89
333.13 K, 15000 kPa, x2 = 0.5314	700.28
333.13 K, 15000 kPa, x2 = 0.9623	686.87
333.13 K, 16000 kPa, x2 = 0.5314	701.15
333.13 K, 16000 kPa, x2 = 0.9623	687.76
333.13 K, 17000 kPa, x2 = 0.5314	702
333.13 K, 17000 kPa, x2 = 0.9623	688.67
333.13 K, 18000 kPa, x2 = 0.5314	702.88
333.13 K, 18000 kPa, x2 = 0.9623	689.57
333.13 K, 19000 kPa, x2 = 0.5314	703.68
333.13 K, 19000 kPa, x2 = 0.9623	690.49
333.13 K, 20000 kPa, x2 = 0.5314	704.48
333.13 K, 20000 kPa, x2 = 0.9623	691.35
333.13 K, 21000 kPa, x2 = 0.5314	705.27
333.13 K, 21000 kPa, x2 = 0.9623	692.18
333.13 K, 22000 kPa, x2 = 0.5314	706.05
333.13 K, 22000 kPa, x2 = 0.9623	693
333.13 K, 23000 kPa, x2 = 0.5314	706.81
333.13 K, 23000 kPa, x2 = 0.9623	693.78
333.13 K, 24000 kPa, x2 = 0.5314	707.53
333.13 K, 24000 kPa, x2 = 0.9623	694.55
333.13 K, 25000 kPa, x2 = 0.5314	708.26
333.13 K, 25000 kPa, x2 = 0.9623	695.28
333.14 K, 1000 kPa, x2 = 0.7736	679.32
333.14 K, 2000 kPa, x2 = 0.7736	680.38
333.14 K, 3000 kPa, x2 = 0.7736	681.42
333.14 K, 4000 kPa, x2 = 0.7736	682.44
333.14 K, 5000 kPa, x2 = 0.7736	683.46
333.14 K, 6000 kPa, x2 = 0.7736	684.5
333.14 K, 7000 kPa, x2 = 0.7736	685.49
333.14 K, 8000 kPa, x2 = 0.7736	686.5
333.14 K, 9000 kPa, x2 = 0.7736	687.47
333.14 K, 10000 kPa, x2 = 0.7736	688.42
333.14 K, 10990 kPa, x2 = 0.7736	689.42
333.14 K, 12000 kPa, x2 = 0.7736	690.37
333.14 K, 13000 kPa, x2 = 0.7736	691.27
333.14 K, 14000 kPa, x2 = 0.7736	692.21
333.14 K, 15000 kPa, x2 = 0.7736	693.1
333.14 K, 16000 kPa, x2 = 0.7736	694.02
333.14 K, 17000 kPa, x2 = 0.7736	694.9
333.14 K, 18000 kPa, x2 = 0.7736	695.77
333.14 K, 19000 kPa, x2 = 0.7736	696.62
333.14 K, 20000 kPa, x2 = 0.7736	697.46
333.14 K, 21000 kPa, x2 = 0.7736	698.28
333.14 K, 22000 kPa, x2 = 0.7736	699.09
333.14 K, 23000 kPa, x2 = 0.7736	699.86
333.14 K, 24000 kPa, x2 = 0.7736	700.61
333.14 K, 25000 kPa, x2 = 0.7736	701.34

— the NIST ThermoML archive (doi:10.1016/j.jct.2011.08.016)
